Key:
Histamine H3 receptor [1] = biological target: Histamine H3 receptor (Rattus norvegicus, UniProt Q9QYN8); test: Displacement of [3H]NAMH from rat histamine H3 receptor expressed in CHO cell membrane; format: cell membranes
Histamine H3 receptor [2] = biological target: T1, Histamine H3 receptor (Homo sapiens, UniProt Q9Y5N1); test: Displacement of [3H]NAMH from human histamine H3 receptor expressed in CHO cell membrane; format: cell membranes
hERG (KCNH2) = hERG (KCNH2) (Homo sapiens, UniProt Q12809); test: Displacement of astemizole from human ERG at 10 uM; conditions: probe astemizole
Sequence of hERG (KCNH2) (Q12809 whole entry): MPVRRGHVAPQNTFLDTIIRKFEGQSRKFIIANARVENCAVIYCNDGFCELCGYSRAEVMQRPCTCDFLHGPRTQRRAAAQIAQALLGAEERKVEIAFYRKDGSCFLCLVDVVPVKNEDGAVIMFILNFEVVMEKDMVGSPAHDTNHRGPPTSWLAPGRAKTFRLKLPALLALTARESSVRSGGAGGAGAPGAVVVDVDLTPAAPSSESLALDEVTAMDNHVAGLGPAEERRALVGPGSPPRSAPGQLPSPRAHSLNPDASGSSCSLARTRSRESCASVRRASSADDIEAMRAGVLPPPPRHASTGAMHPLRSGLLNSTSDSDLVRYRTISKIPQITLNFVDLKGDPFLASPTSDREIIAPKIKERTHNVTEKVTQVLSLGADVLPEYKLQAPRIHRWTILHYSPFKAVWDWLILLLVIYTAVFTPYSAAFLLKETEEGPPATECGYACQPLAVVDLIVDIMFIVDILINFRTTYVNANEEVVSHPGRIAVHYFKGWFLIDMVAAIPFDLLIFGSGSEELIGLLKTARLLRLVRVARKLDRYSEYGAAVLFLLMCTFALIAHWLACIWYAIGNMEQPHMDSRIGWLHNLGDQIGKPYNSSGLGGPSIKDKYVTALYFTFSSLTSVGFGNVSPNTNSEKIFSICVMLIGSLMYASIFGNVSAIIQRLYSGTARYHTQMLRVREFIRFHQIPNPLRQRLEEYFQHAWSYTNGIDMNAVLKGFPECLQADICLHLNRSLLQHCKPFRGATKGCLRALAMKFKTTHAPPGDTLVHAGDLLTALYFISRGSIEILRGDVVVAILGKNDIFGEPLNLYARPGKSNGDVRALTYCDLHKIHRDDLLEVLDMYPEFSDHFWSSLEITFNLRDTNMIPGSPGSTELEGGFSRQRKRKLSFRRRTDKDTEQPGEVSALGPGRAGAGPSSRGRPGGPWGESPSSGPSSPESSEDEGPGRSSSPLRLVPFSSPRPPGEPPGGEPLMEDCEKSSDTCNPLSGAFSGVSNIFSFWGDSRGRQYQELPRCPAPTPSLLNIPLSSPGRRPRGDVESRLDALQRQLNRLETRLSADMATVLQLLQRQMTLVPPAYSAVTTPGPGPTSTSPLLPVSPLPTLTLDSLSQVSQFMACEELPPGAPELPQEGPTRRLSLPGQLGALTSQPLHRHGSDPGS

[3] = biological target: Histamine H4 receptor (Homo sapiens) (UniProt Q9H3N8); test: Binding affinity to human histamine H4 receptor at 10 uM by radioligand binding assay
[4] = Oral bioavailability in rat at 5 mg/kg; format: ADME, organism-based; conditions: in vivo
Cytochrome P450 2C9 = Cytochrome P450 2C9 (Homo sapiens, UniProt P11712); test: Inhibition of CYP2C9; format: ADME
Sequence of Cytochrome P450 2C9 (P11712 whole entry): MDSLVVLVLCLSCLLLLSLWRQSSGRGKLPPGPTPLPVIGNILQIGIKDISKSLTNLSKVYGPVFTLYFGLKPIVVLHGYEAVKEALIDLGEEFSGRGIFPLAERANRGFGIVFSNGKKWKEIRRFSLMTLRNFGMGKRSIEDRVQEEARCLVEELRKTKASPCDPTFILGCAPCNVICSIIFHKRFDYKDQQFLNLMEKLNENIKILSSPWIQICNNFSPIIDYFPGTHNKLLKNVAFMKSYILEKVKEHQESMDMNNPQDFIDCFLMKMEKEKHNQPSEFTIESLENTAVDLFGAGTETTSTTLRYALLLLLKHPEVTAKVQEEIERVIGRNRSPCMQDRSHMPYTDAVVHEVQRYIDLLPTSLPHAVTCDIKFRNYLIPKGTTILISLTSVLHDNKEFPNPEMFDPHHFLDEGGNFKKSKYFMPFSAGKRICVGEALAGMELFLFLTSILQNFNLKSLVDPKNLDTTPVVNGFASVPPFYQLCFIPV

Homo sapiens [5] = organism: Homo sapiens; test: Selectivity ratio of Ki for human H1 receptor to Ki for human H3 receptor
[6] = biological target: Histamine H1 receptor (Homo sapiens) (UniProt P35367); test: Binding affinity to human histamine H1 receptor at 10 uM by radioligand binding assay
Sequence of Histamine H1 receptor (Homo sapiens) (P35367 whole entry): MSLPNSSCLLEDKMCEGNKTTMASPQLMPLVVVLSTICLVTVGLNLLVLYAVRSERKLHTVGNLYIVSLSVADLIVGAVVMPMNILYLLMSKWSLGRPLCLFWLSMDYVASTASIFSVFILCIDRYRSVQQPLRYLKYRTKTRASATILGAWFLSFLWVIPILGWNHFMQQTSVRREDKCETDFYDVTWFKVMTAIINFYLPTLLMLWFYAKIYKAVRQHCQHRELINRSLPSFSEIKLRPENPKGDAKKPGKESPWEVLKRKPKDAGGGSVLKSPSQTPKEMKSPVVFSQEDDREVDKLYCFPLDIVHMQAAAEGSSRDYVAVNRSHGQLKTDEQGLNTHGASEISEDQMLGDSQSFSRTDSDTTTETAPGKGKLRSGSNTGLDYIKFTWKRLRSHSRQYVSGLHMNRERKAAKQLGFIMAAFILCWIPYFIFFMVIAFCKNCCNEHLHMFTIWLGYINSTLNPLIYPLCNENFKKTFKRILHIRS

[7] = Cmax in rat at 5 mg/kg, po; format: ADME, organism-based; design: dose 5 mg/kg, route oral; conditions: in vivo
[8] = Clearance in rat at 1 mg/kg, iv; format: ADME, organism-based; design: dose 1 mg/kg, route intravenous; conditions: in vivo
Cytochrome P450 2C19 = Cytochrome P450 2C19 (Homo sapiens, UniProt P33261); test: Inhibition of CYP2C19; format: ADME
Sequence of Cytochrome P450 2C19 (P33261 whole entry): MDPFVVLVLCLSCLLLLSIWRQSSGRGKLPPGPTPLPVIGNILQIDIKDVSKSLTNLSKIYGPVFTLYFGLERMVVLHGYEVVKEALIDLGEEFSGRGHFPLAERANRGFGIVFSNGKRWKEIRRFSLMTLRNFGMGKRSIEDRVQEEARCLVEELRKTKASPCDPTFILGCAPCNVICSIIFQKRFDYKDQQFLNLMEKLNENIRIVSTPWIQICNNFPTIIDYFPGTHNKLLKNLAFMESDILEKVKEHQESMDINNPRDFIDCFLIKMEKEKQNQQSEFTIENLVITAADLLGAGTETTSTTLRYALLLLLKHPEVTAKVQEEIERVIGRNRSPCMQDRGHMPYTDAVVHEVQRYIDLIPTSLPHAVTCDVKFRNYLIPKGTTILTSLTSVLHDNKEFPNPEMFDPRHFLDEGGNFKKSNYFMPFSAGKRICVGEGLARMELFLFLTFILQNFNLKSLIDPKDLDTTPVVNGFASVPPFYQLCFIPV

[9] = biological target: Histamine H2 receptor (Homo sapiens) (UniProt P25021); test: Binding affinity to human histamine H2 receptor at 10 uM by radioligand binding assay
Sequence of Histamine H2 receptor (Homo sapiens) (P25021 whole entry): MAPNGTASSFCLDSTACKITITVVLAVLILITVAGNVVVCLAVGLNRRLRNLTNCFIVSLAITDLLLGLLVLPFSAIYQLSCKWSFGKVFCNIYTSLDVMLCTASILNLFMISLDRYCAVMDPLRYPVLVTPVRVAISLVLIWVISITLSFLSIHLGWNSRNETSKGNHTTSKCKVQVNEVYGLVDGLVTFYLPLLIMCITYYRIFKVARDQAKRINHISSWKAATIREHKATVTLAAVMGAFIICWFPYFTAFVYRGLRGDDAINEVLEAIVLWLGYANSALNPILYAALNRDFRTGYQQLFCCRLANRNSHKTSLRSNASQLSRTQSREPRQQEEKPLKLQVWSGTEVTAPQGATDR

Homo sapiens [10] = organism: Homo sapiens; test: Selectivity ratio of Ki for human H2 receptor to Ki for human H3 receptor
[11] = AUC in rat at 5 mg/kg, po; format: ADME, organism-based; design: dose 5 mg/kg, route oral; conditions: plasma
[12] = (§1) Volume of distribution in rat at 1 mg/kg, iv; format: ADME, organism-based; design: dose 1 mg/kg, route intravenous; conditions: in vivo
Cytochrome P450 2D6 = Cytochrome P450 2D6 (Homo sapiens, UniProt P10635); test: Inhibition of CYP2D6; format: ADME
Sequence of Cytochrome P450 2D6 (P10635 whole entry): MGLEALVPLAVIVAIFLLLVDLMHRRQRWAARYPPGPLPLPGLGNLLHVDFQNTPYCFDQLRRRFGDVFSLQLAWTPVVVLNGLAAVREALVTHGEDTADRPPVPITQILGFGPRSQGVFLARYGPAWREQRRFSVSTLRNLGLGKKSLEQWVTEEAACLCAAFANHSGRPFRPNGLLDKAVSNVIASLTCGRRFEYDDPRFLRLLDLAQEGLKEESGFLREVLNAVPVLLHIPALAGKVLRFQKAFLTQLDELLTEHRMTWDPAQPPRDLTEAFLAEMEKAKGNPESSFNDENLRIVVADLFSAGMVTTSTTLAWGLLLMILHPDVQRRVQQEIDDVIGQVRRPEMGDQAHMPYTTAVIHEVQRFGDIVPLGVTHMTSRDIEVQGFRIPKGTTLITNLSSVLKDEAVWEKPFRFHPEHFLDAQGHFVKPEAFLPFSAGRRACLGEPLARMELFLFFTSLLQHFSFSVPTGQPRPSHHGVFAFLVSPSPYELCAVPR

Cytochrome P450 3A4 = Cytochrome P450 3A4 (Homo sapiens, UniProt P08684); test: Inhibition of CYP3A4; format: ADME
Sequence of Cytochrome P450 3A4 (P08684 whole entry): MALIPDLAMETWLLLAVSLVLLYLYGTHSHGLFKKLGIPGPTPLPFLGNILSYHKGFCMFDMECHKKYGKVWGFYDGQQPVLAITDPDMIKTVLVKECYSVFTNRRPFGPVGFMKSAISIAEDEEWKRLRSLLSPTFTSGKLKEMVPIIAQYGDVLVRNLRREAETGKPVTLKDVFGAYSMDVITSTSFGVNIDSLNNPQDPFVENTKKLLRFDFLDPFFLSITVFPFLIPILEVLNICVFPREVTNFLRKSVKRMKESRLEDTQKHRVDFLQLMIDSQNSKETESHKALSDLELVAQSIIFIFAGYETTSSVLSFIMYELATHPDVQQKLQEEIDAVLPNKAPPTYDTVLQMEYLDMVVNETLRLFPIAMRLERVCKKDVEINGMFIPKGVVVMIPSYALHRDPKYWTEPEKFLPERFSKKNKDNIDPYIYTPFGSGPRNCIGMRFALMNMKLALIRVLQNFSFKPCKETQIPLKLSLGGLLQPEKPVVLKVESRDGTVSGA

[13] = (§2) Half life in rat at 1 mg/kg, iv; format: ADME, organism-based; design: dose 1 mg/kg, route intravenous; conditions: in vivo
Histamine H3 receptor [14] = biological target: T1, Histamine H3 receptor; test: Inverse agonist activity at human H3 receptor by [35S]GTPgamma binding assay; format: functional
Cytochrome P450 1A2 = biological target: T2, Cytochrome P450 1A2 (Homo sapiens, UniProt P05177); test: Inhibition of CYP1A2; format: ADME
T2 sequence (P05177 whole entry): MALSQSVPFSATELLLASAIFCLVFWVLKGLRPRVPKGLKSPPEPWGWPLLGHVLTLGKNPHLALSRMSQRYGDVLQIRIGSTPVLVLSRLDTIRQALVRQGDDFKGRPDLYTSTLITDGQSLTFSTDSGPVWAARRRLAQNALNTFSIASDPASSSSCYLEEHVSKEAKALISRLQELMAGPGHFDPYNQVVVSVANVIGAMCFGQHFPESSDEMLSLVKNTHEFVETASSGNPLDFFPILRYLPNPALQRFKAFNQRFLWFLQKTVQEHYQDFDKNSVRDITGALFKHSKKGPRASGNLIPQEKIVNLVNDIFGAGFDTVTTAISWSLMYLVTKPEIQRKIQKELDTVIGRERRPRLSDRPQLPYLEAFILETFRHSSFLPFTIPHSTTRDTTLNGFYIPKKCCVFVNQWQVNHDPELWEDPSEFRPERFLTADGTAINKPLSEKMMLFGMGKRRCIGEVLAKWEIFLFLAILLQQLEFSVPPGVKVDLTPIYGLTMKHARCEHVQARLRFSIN

Homo sapiens [15] = organism: Homo sapiens; test: Selectivity ratio of Ki for human H4 receptor to Ki for human H3 receptor
[16] = Ratio of drug uptake in brain to plasma in rat at 5 mg/kg, po; format: ADME, organism-based; design: dose 5 mg/kg, route oral; conditions: read-out: BPR
[17] = Drug uptake in rat brain at 5 mg/kg, po after 6 hrs; format: ADME, organism-based; design: dose 5 mg/kg, route oral; conditions: read-out: Drug uptake
Rattus norvegicus [18] = test: as §1; format: ADME, organism-based; design: dose 1 mg/kg, route intravenous; conditions: in vivo
Rattus norvegicus [19] = test: as §2; format: ADME, organism-based; design: dose 1 mg/kg, route intravenous; conditions: in vivo

T1 sequence (Q9Y5N1 whole entry): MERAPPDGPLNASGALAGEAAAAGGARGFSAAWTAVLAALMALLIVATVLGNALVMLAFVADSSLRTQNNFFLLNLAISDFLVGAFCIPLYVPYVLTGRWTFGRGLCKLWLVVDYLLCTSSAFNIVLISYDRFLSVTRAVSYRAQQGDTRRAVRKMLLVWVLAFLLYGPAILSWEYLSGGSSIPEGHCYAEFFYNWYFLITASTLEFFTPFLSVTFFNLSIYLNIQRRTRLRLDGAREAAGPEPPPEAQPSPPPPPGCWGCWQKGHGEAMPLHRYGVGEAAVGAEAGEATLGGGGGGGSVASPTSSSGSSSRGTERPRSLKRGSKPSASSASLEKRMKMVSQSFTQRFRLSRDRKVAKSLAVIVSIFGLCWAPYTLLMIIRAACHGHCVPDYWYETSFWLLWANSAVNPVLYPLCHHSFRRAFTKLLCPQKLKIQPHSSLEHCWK
Sequence of Histamine H3 receptor (Rattus norvegicus, UniProt Q9QYN8) (Q9QYN8 whole entry): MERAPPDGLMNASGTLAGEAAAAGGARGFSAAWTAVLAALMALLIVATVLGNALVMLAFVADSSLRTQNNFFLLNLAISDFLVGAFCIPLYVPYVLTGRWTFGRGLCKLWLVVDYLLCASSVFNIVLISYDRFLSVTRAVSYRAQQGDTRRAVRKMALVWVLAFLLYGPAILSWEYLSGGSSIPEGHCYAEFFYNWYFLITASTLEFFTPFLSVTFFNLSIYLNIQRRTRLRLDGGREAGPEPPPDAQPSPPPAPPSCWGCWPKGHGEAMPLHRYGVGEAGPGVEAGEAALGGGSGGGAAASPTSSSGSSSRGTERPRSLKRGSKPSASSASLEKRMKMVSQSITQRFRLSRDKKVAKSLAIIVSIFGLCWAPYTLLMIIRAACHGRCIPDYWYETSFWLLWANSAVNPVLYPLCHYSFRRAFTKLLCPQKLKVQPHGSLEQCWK

Row | Ki (Histamine H3 receptor [1]) [nM] | Ki (Histamine H3 receptor [2]) [nM] | inhibition [3] [%] | bioavailability [4] [%] | Ratio Ki (Homo sapiens [5]) | inhibition [6] [%] | Cmax [7] [ng/mL] | clearance [8] [mL/min/kg] | inhibition [9] [%] | Ratio Ki (Homo sapiens [10]) | AUC [11] [ng·h/mL] | Vd [12] [L/kg] | half-life [13] [min] | Ratio Ki (Homo sapiens [15]) | SMILES | also measured
1 | 140 | 105 | – | – | – | – | – | – | – | – | – | – | – | – | O=c1cc2c(nn1Cc1ccccc1)-c1ccc(OCCCN3CCCCC3)cc1CC2 | –
2 | 8.3 | 3.6 | < 40 | 3 | > 1000 | < 40 | 24 | 36 | < 40 | > 1000 | 80 | 1.3 | 24 | > 1000 | C[C@@H]1CCCN1CCCOc1ccc2c(c1)CCc1cc(=O)n(C)nc1-2 | inhibition at 10 µM (hERG (KCNH2)): 34%; IC50 (Cytochrome P450 2C9): > 30000 nM; IC50 (Cytochrome P450 2C19): > 30000 nM; IC50 (Cytochrome P450 2D6): > 30000 nM; IC50 (Cytochrome P450 3A4): > 30000 nM; EC50 (Histamine H3 receptor [14]): 1.7 nM; IC50 (Cytochrome P450 1A2): > 30000 nM
3 | 14 | 4.3 | < 40 | 2 | > 1000 | < 40 | 34 | 11 | < 40 | > 1000 | 191 | 1.2 | 84 | > 1000 | C[C@@H]1CCCN1CCCOc1ccc2c(c1)CCc1cc(=O)[nH]nc1-2 | –
4 | 26 | 17 | – | 44 | – | – | 75 | – | – | – | 468 | – | – | – | O=C1CC2CCc3cc(OC4CCN(C5CCC5)CC4)ccc3C2=NN1 (racemic) | Kp [16]: 5.2; concentration at 6 h [17]: 780 nM; Vd (Rattus norvegicus [18]): 6.6 L/kg; t1/2 (Rattus norvegicus [19]): 54 min
5 | 53 | 15 | – | 11 | – | – | 27 | 93 | – | – | 96 | 6 | 42 | – | C[C@@H]1CCCN1CCCOc1ccc2c(c1)CCC1CC(=O)NN=C21 (mixture of isomers) | –
6 | 17 | 4.2 | < 40 | – | > 1000 | < 40 | – | – | < 40 | > 1000 | – | – | – | > 1000 | CC(C)n1nc2c(cc1=O)CCc1cc(OCCCN3CCC[C@H]3C)ccc1-2 | –
7 | 19 | 6.2 | < 45 | – | – | < 45 | – | – | < 45 | – | – | – | – | – | C[C@@H]1CCCN1CCCOc1ccc2c(c1)CCc1n[nH]c(=O)cc1-2 | –
8 | 23 | 16 | – | – | – | – | – | – | – | – | – | – | – | – | C[C@@H]1CCCN1CCCOc1ccc2c(c1)CCc1cc(=O)n(-c3ccccc3)nc1-2 | –
